What was measured:
[1] = Relative thermodynamic stability of Ibandronate polymorphs; conditions: polymorph A compared with polymorph B
[2] = Solubility measurement of crystalline Ibandronate polymorphs in buffer solutions and water (titration); format: physicochemical; conditions: 25° C.
Protocol: The solubility of the individual crystalline Ibandronate polymorphs A and B was measured for various solutions. Approximately 10 g of the corresponding polymorph A or B were suspended in three different buffer solutions at pH 2, pH 4 (Titrisol-buffer, citrate/HCl), at pH 7 (methenamine buffer, HCl) or in water. The suspension was stirred for 24 hours at 25° C. and was kept additonally 24 hours without stirring at the same temperature. Solubility was calculated by titration according to the following method.
The residue was filtered, 2 ml of the filtrate taken, 5 ml of Titriplex III solution were added and diluted with water to 100 ml. 2 ml of this solution were added to approximately 0.1 ml of xylenol orange indicator and the pH was adjusted to 6.5 by adding small portions of methenamine buffer solution or 0.1 M hydrochloric acid. The solution is titrated immediately with Th-DCTA-xylenol orange complex until the color changes from yellow to reddish-violet. The endpoint is determined photometrically.

Compound | thermodynamic stability relative to the other polymorph [1] | solubility ([2]; pH 2 Titrisol-buffer (citrate/HCl), stirred 24 h + 24 h without stirring) [mg/mL] | solubility ([2]; pH 4 Titrisol-buffer (citrate/HCl), stirred 24 h + 24 h without stirring) [mg/mL] | solubility ([2]; pH 7 methenamine buffer/HCl, stirred 24 h + 24 h without stirring) [mg/mL] | solubility ([2]; water, stirred 24 h + 24 h without stirring) [mg/mL] | solubility ([2]; pH 2 Titrisol-buffer (citrate/HCl), under at least partial conversion to polymorph A) [mg/mL] | solubility ([2]; pH 4 Titrisol-buffer (citrate/HCl), under at least partial conversion to polymorph A) [mg/mL] | solubility ([2]; pH 7 methenamine buffer/HCl, under at least partial conversion to polymorph A) [mg/mL] | solubility ([2]; water, under at least partial conversion to polymorph A, listed as Ibandronate polymorph B, monosodium salt monohydrate) | solubility ([2]; water, under at least partial conversion to polymorph A, monosodium salt monohydrate) [mg/mL]
CCCCCN(C)CCC(O)(P(=O)([O-])O)P(=O)(O)O.O.[Na+] [Polymorph A, 3-(N-methyl-N-pentyl) amino-1-hydroxypropane-1,1-diphosphonic acid monosodium salt monohydrate] | thermodynamically more stable | 280 | 276 | 292 | 278 | – | – | – | – | –
CCCCCN(C)CCC(O)(P(=O)([O-])O)P(=O)(O)O.O.[Na+] [Polymorph B, 3-(N-methyl-N-pentyl) amino-1-hydroxypropane-1,1-diphosphonic acid monosodium salt monohydrate] | – | – | – | – | – | 274 | 278 | 299 | about 279 g/l | 279

Reference: US7582789B2, “Ibandronate polymorph” (Hoffmann-La Roche Inc., priority 2005, dated 2009)
